Experiment [1] has as its system HCT-116 (colorectal carcinoma) cell line. In words: CellTiter-Glo luminescent cell viability assay, HCT-116. It counts as cell-based, human. The settings on record: Homo sapiens; for viability at 4 µM: HCT-116, compound at 4 μM; for viability at 4 µM / viability at 10 µM: 72 h; for viability at 10 µM: HCT-116, compound at 10 μM; for EC50: HCT-116 cell line, 72 h incubation, CellTiter-Glo, read-out: EC50, growth inhibition of HCT-116. In outline: (§1)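 In a 72 h viability assay, compound-treated cells were compared against matched H2O or DMSO diluent controls by luminescence, points in at least duplicate.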
(In general: In ATP-based viability assays light output follows the ATP content of the culture.)

The test system of experiment [2] is 786-O (renal adenocarcinoma) cell line. In words: CellTiter-Glo luminescent cell viability assay, 786-O. Format: cell-based, human. The settings on record: Homo sapiens, 786-0; for EC50: 786-O cell line, 72 h incubation, CellTiter-Glo, read-out: EC50, growth inhibition of 786-O; for viability at 4 µM / viability at 10 µM: 786-O, 72 h; for viability at 4 µM: compound at 4 μM; for viability at 10 µM: compound at 10 μM. In outline: as §1

Experiment [3] has as its system PANC-1 (prancreatic carcinoma) cell line. In words: CellTiter-Glo luminescent cell viability assay, PANC-1. Format: cell-based. The settings on record: Homo sapiens; for viability at 4 µM: PANC-1, 4 μM; for viability at 4 µM / viability at 10 µM: 72 h, % of signal of diluent-treated cultures; for viability at 10 µM: PANC-1, 10 μM; for EC50: PANC-1 cell line, 72 h incubation, CellTiter-Glo, read-out: EC50 (growth inhibition assay of PANC-1 cell line). In outline:
(§2)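 Adherent cells grow overnight, or suspension cells are seeded 1 h ahead; compound dilutions are then added and plates incubated 72 h at 37 °C. After 30 min at room temperature, CellTiter-Glo reagent is added and luminescence recorded. EC50 derives from signal relative to diluent control.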

The subject of experiment [4] is HepG2 (hepatocellular carcinoma) cell line. In words: CellTiter-Glo luminescent cell viability assay, HepG2. Format: cell-based, human. To be noted: Homo sapiens; for viability at 4 µM / viability at 10 µM: HepG2, HepG, 72 h; for viability at 4 µM: compound at 4 μM; for viability at 10 µM: compound at 10 μM; for EC50: HepG2 cell line, 72 h incubation, CellTiter-Glo, read-out: EC50, growth inhibition of HepG2. In outline: as §2

In experiment [5] the test system is MOLM-14 (acute myeloid leukemia) cell line. In words: CellTiter-Glo luminescent cell viability assay, MOLM-14. The settings on record: Homo sapiens; for viability at 4 µM: MOLM-14, compound at 4 μM; for viability at 4 µM / viability at 10 µM: 72 h; for viability at 10 µM: MOLM-14, compound at 10 μM; for EC50: MOLM-14 cell line, 72 h incubation, CellTiter-Glo, read-out: EC50, growth inhibition of MOLM-14. It counts as cell-based, human. In outline: as §2

The test system of experiment [6] is A375 (malignant melanoma) cell line. In words: CellTiter-Glo luminescent cell viability assay, A375. It counts as cell-based, human. To be noted: Homo sapiens, A-375; for viability at 4 µM: A375, compound at 4 μM; for viability at 4 µM / viability at 10 µM: 72 h; for viability at 10 µM: A375, compound at 10 μM; for EC50: A375 cell line, 72 h incubation, CellTiter-Glo, read-out: EC50, growth inhibition of A375. In outline:
as §1

For experiment [7], the system named is Huh7 (hepatocellular carcinoma) cell line. In words: CellTiter-Glo luminescent cell viability assay, Huh7. Format: cell-based, human. To be noted: Homo sapiens, Huh-7; for viability at 4 µM: Huh7, compound at 4 μM; for viability at 4 µM / viability at 10 µM: 72 h; for viability at 10 µM: Huh7, compound at 10 μM; for EC50: Huh7 cell line, 72 h incubation, CellTiter-Glo, read-out: EC50, growth inhibition of Huh7. In outline: as §2

Structures are written as SMILES.

The results in this text go back to patent publication US10577362B2, “Substituted 2, 4-diamino-quinoline derivatives for use in the treatment of proliferative diseases” (GENOSCIENCE PHARMA, priority 2016, dated 2020).

For the compound `Cc1ccc2c(N3CCC(NC(C)(C)C)CC3)c(C#N)c(NCc3ccc(Cl)cc3)nc2c1` [Compound 416CN, 2-(4-chlorobenzylamino)-3-cyano-4-[4-(tert-butylamino)piperidin-1-yl]-7-methylquinoline], the viability at 4 µM in experiment [1] is 0.3%; in experiment [2] it was 0.4%; in experiment [3] it was 100%; in experiment [4], 61.9%; in experiment [5], 37.9%; in experiment [6], 0.4%. For the same compound, the viability at 4 µM in experiment [7] was 75.5%. For the same compound, the viability at 10 µM was found to be 0.3% in experiment [1]; 0.3% in experiment [2]; 0.7% in experiment [3]; 0.5% in experiment [4]; 0.4% in experiment [5]; 0.4% in experiment [6]. The viability at 10 µM in experiment [7] was 0.6%. Further, the EC50 in experiment [1] was in the range of 0.5 to 5 µM; in experiment [2] it was 0.5 to 5 µM; in experiment [3] it was 5 to 10 µM; in experiment [4], 0.5 to 5 µM; in experiment [5], 0.5 to 5 µM; in experiment [6] it was 0.5 to 5 µM. In addition, the EC50 in experiment [7] was 0.5 to 5 µM.

On to `CN1CCC(NC2CCN(c3c(C#N)c(NCc4ccc(Cl)cc4)nc4ccccc34)CC2)CC1` [Compound 3182CN, 2-(4-chlorobenzylamino)-3-cyano-4-{4-[(1-methylpiperidin-4-yl)amino]piperidin-1-yl}quinoline], for which the viability at 4 µM in experiment [1] is 0.5%; in experiment [2] it was 0.6%; in experiment [3], 0.8%; in experiment [4], 0.5%; in experiment [5] it was 0.6%; in experiment [6] it was 0.5%. The viability at 4 µM in experiment [7] turned out to be 0.6%. The viability at 10 µM in experiment [1] stood at 0.3%; in experiment [2], 0.4%; in experiment [3], 0.5%; in experiment [4], 0.3%; in experiment [5] it was 0.4%; in experiment [6], 0.4%. Besides, in experiment [7], the viability at 10 µM worked out at 0.4%. Besides, the EC50 was in the range of 0.5 to 5 µM in experiment [1]; 0.05 to 0.5 µM in experiment [2]; 0.5 to 5 µM in experiment [4]; 0.5 to 5 µM in experiment [5]; 0.5 to 5 µM in experiment [6]; 0.5 to 5 µM in experiment [7].

For the compound `CN(C)C1CCN(c2c(C#N)c(NCc3ccc(Cl)cc3)nc3ccccc23)CC1` [Compound 3184CN, 2-(4-chlorobenzylamino)-3-cyano-4-[4-(dimethylamino)piperidin-1-yl]quinoline], the viability at 4 µM was determined as 60.5% in experiment [1]; 54.1% in experiment [2]; 90.7% in experiment [3]; 72.9% in experiment [4]; 71.8% in experiment [5]; 59.5% in experiment [6]. Moreover, in experiment [7], the viability at 4 µM was found to be 77.4%. The viability at 10 µM stood at 0.5% in experiment [1]; 0.7% in experiment [2]; 24.1% in experiment [3]; 0.7% in experiment [4]; 0.6% in experiment [5]; 0.5% in experiment [6]. Further, in experiment [7], the viability at 10 µM came out at 0.6%. Besides, the EC50 in experiment [1] lay in the range of 0.5 to 5 µM; in experiment [2], 0.5 to 5 µM; in experiment [3], 5 to 10 µM; in experiment [4], 0.5 to 5 µM; in experiment [5], 0.5 to 5 µM; in experiment [6], 0.5 to 5 µM. Further, the EC50 in experiment [7] lay within 5 to 10 µM.

As for `N#Cc1c(NCc2ccc(Cl)cc2)nc2ccccc2c1N1CCC(NC2CCCC2)C1` (centres unmarked) [Compound 134CN, 2-(4-chloro-benzylamino)-3-cyano-4-[3-(cyclopentyl-amino)pyrroli-din-1-yl]quinoline], the viability at 4 µM in experiment [1] came out at 88.5%; in experiment [2] it was 92.8%; in experiment [3], 99.4%; in experiment [4], 101%; in experiment [5], 100%; in experiment [6], 79.9%. Besides, in experiment [7], the viability at 4 µM was determined as 85.3%. Besides, the viability at 10 µM in experiment [1] came to 50.6%; in experiment [2], 64%; in experiment [3] it was 91.7%; in experiment [4], 81.3%; in experiment [5] it was 89.5%; in experiment [6], 29.1%. For the same compound, the viability at 10 µM in experiment [7] was 70.5%.

`CC(C)NC1CCN(c2c(C#N)c(NCc3ccc(Cl)cc3)nc3ccccc23)CC1` [Compound 3174CN, 2-(4-chlorobenzylamino)-3-cyano-4-[4-(iso-propylamino)piperidin-1-yl]quinoline]: the viability at 4 µM in experiment [1] was determined as 0.3%; in experiment [2], 3.6%; in experiment [3] it was 84.8%; in experiment [4], 0.5%; in experiment [5], 24.4%; in experiment [6] it was 0.3%. Moreover, in experiment [7], the viability at 4 µM stood at 62.9%. In addition, the viability at 10 µM in experiment [1] worked out at 0.1%; in experiment [2], 0.2%; in experiment [3] it was 0.6%; in experiment [4], 0.2%; in experiment [5] it was 0.3%; in experiment [6] it was 0.2%. The viability at 10 µM in experiment [7] turned out to be 0.3%. For the same compound, the EC50 in experiment [1] fell in the range of 0.5 to 5 µM; in experiment [2] it was 0.5 to 5 µM; in experiment [3] it was 5 to 10 µM; in experiment [4], 0.5 to 5 µM; in experiment [5] it was 0.5 to 5 µM; in experiment [6] it was 0.5 to 5 µM. In addition, in experiment [7], the EC50 fell in the range of 0.5 to 5 µM.

With `N#Cc1c(NCc2ccc(Cl)cc2)nc2ccccc2c1N1CCC(N2CCCC2)C1` (centres unmarked) [Compound 148CN, 2-(4-chloro-benzylamino)-3-cyano-4-[3-(pyrrolidin-1-yl)pyrrolidin-1-yl]quinoline], the viability at 4 µM is 93.5% in experiment [1]; 88.2% in experiment [2]; 102% in experiment [3]; 104% in experiment [4]; 92.9% in experiment [5]; 94.1% in experiment [6]. Also, in experiment [7], the viability at 4 µM amounted to 91.9%. In addition, the viability at 10 µM in experiment [1] amounted to 92.2%; in experiment [2] it was 67%; in experiment [3], 100%; in experiment [4], 91.9%; in experiment [5] it was 94.7%; in experiment [6] it was 93.2%. Also, in experiment [7], the viability at 10 µM amounted to 80.8%.

In the case of `Cc1ccc(OC2CCN(c3c(C#N)c(NCc4ccc(Cl)cc4)nc4ccccc34)CC2)cc1` [Compound 2944CN, 2-(4-chlorobenzylamino)-3-cyano-4-[4-(p-tolyloxy)piperidin-1-yl]quinoline], the viability at 4 µM in experiment [1] was found to be 32.8%; in experiment [2], 96%; in experiment [3] it was 111%; in experiment [4], 107%; in experiment [5], 104%; in experiment [6] it was 96.9%. In addition, in experiment [7], the viability at 4 µM came out at 93.9%. Besides, the viability at 10 µM turned out to be 29.1% in experiment [1]; 95.5% in experiment [2]; 112% in experiment [3]; 84% in experiment [4]; 92.1% in experiment [5]; 87.1% in experiment [6]. Besides, the viability at 10 µM in experiment [7] turned out to be 89%.

What is called viability is a read-out of living cells in per cent, often relative to untreated cells. By EC50 is commonly meant the concentration giving half of the maximal effect.
